# Data from US11214803B2, “Modulators of YAP1 expression” (Ionis Pharmaceuticals, Inc., priority 2019, dated 2022).
# Strand notation (5' to 3'): a small letter for the sugar, then the base; units joined by * are phosphorothioate-linked, units joined directly phosphodiester-linked; [ ] holds rarer units or linkages, { } end groups; capitals alone tell only the bases. k = constrained ethyl (cEt); [5mC] = 5-methylcytosine; d = 2'-deoxy (DNA)
# System: Yap1 mRNA
# Assay: Dose-dependent inhibition of human Yap1 in A-431 cells (Example 7, 10,000 cells per well, RTS36584)
# Format: cell-based
# Conditions: free uptake
# Procedure, shortened: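 A-431 cells at 10,000 per well received modified oligonucleotides by free uptake at several doses. After about 48 hours, Yap1 mRNA was quantified with primer-probe set RTS36584, normalized to RIBOGREEN total RNA and expressed as % untreated control. IC50 came from linear regression on a log/linear plot.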
# [1] = Table 58, 15.6 nM, A-431 cells 10,000 cells per well, 48 hours
# [2] = Table 58, 62.5 nM, A-431 cells 10,000 cells per well, 48 hours
# [3] = Table 58, 4000.00 nM, A-431 cells 10,000 cells per well, 48 hours
# [4] = Table 58, A-431 cells 10,000 cells per well
# [5] = 15.6 nM, A-431 cells, 10,000 cells per well, approximately 48 hours
# [6] = 62.5 nM, A-431 cells, 10,000 cells per well, approximately 48 hours
# [7] = 4000.00 nM, A-431 cells, 10,000 cells per well, approximately 48 hours
# [8] = A-431 cells, approximately 48 hours, linear regression on log/linear plot
# [9] = Table 60, 15.6 nM, A-431 cells 10,000 cells per well, 48 hours
# [10] = Table 60, 62.5 nM, A-431 cells 10,000 cells per well, 48 hours
# [11] = Table 60, 4000.00 nM, A-431 cells 10,000 cells per well, 48 hours
# [12] = Table 60, A-431 cells 10,000 cells per well
# [13] = Table 56, 15.6 nM, A-431 cells 10,000 cells per well, 48 hours
# [14] = Table 56, 62.5 nM, A-431 cells 10,000 cells per well, 48 hours
# [15] = Table 56, 4000.00 nM, A-431 cells 10,000 cells per well, 48 hours
# [16] = Table 56, A-431 cells 10,000 cells per well
substance,measurement,setting,value
958577 (kT*k[5mC]*kT*dG*dT*dG*dG*d[5mC]*dT*dA*d[5mC]*dT*dG*kG*k[5mC]*kA; antisense) [compound 958577],"Yap1 mRNA, % UTC",[1],81 % UTC
same,"Yap1 mRNA, % UTC",[2],51 % UTC
same,"Yap1 mRNA, % UTC",[3],11 % UTC
same,IC50,[4],100 nM
958570 (kT*kG*kT*dA*dA*dT*dT*d[5mC]*dA*dT*dA*dT*dA*k[5mC]*k[5mC]*k[5mC]; antisense) [compound 958570],"Yap1 mRNA, % UTC",[5],93 % UTC
same,"Yap1 mRNA, % UTC",[6],60 % UTC
same,"Yap1 mRNA, % UTC",[7],17 % UTC
same,IC50,[8],100 nM
958508 (kG*kA*kG*dA*dG*d[5mC]*dA*dG*dA*dT*dA*dA*dT*k[5mC]*kG*kA; antisense) [compound 958508],"Yap1 mRNA, % UTC",[9],65 % UTC
same,"Yap1 mRNA, % UTC",[10],64 % UTC
same,"Yap1 mRNA, % UTC",[11],13 % UTC
same,IC50,[12],100 nM
958793 (k[5mC]*k[5mC]*kG*d[5mC]*dA*dT*dT*dG*d[5mC]*d[5mC]*dT*dA*dA*kG*kA*kG; antisense) [compound 958793],"Yap1 mRNA, % UTC",[9],88 % UTC
same,"Yap1 mRNA, % UTC",[10],61 % UTC
same,"Yap1 mRNA, % UTC",[11],25 % UTC
same,IC50,[12],200 nM
958658 (kA*k[5mC]*kA*dG*dT*dA*dT*dA*dA*dT*dA*dT*d[5mC]*k[5mC]*kT*kA; antisense) [compound 958658],"Yap1 mRNA, % UTC",[9],90 % UTC
same,"Yap1 mRNA, % UTC",[10],88 % UTC
same,"Yap1 mRNA, % UTC",[11],29 % UTC
same,IC50,[12],400 nM
958575 (kG*kG*k[5mC]*dT*dA*d[5mC]*dT*dG*dG*d[5mC]*dA*dA*dA*kT*kT*kA; antisense) [compound 958575],"Yap1 mRNA, % UTC",[5],89 % UTC
same,"Yap1 mRNA, % UTC",[6],58 % UTC
same,"Yap1 mRNA, % UTC",[7],20 % UTC
same,IC50,[8],100 nM
958356 (antisense kT*kT*kG*dA*dA*dG*dA*dA*dG*dG*dA*dG*dT*k[5mC]*kG*kG) [compound 958356],"Yap1 mRNA, % UTC",[13],84 % UTC
same,"Yap1 mRNA, % UTC",[14],79 % UTC
same,"Yap1 mRNA, % UTC",[15],21 % UTC
same,IC50,[16],180 nM
958370 (antisense k[5mC]*kT*kT*dT*dA*dT*d[5mC]*dT*dA*dG*d[5mC]*dT*dT*kG*kG*kT) [compound 958370],"Yap1 mRNA, % UTC",[13],98 % UTC
same,"Yap1 mRNA, % UTC",[14],74 % UTC
same,"Yap1 mRNA, % UTC",[15],22 % UTC
same,IC50,[16],200 nM
958485 (kA*kG*kA*dG*dG*dT*d[5mC]*dA*dG*d[5mC]*dA*dA*dT*kA*k[5mC]*kA; antisense) [compound 958485],"Yap1 mRNA, % UTC",[5],68 % UTC
same,"Yap1 mRNA, % UTC",[6],38 % UTC
same,"Yap1 mRNA, % UTC",[7],8 % UTC
same,IC50,[8],40 nM
958486 (kT*kT*kA*dG*dA*dG*d[5mC]*d[5mC]*dA*dA*d[5mC]*dT*dG*kT*kG*kA; antisense) [compound 958486],"Yap1 mRNA, % UTC","Table 57, 15.6 nM, A-431 cells 10,000 cells per well, 48 hours",87 % UTC
same,"Yap1 mRNA, % UTC","Table 57, 62.5 nM, A-431 cells 10,000 cells per well, 48 hours",73 % UTC
same,"Yap1 mRNA, % UTC","Table 57, 4000.00 nM, A-431 cells 10,000 cells per well, 48 hours",22 % UTC
same,IC50,"Table 57, A-431 cells 10,000 cells per well",200 nM
958542 (kT*kA*kT*dA*dG*dT*dA*dT*dT*d[5mC]*dT*dA*dT*k[5mC]*k[5mC]*kA; antisense) [compound 958542],"Yap1 mRNA, % UTC",[1],90 % UTC
same,"Yap1 mRNA, % UTC",[2],70 % UTC
same,"Yap1 mRNA, % UTC",[3],17 % UTC
same,IC50,[4],100 nM
958477 (kA*kT*kT*dT*d[5mC]*d[5mC]*dG*dG*dT*dG*d[5mC]*dA*dT*kG*kT*kG; antisense) [compound 958477],"Yap1 mRNA, % UTC",[1],83 % UTC
same,"Yap1 mRNA, % UTC",[2],37 % UTC
same,"Yap1 mRNA, % UTC",[3],6 % UTC
same,IC50,[4],100 nM
958742 (kA*kG*k[5mC]*dA*dA*dT*dA*dT*dG*dG*dT*dA*dT*kT*kA*kG; antisense) [compound 958742],"Yap1 mRNA, % UTC",[1],105 % UTC
same,"Yap1 mRNA, % UTC",[2],70 % UTC
same,"Yap1 mRNA, % UTC",[3],20 % UTC
same,IC50,[4],200 nM
